Results on eleven molecules are retold here after patent publication US7179800B2 (priority 2002, dated 2007).

In assay [1] the test system is Male ICR mice. Kind of assay: Suppression of spontaneous activity (SA) in mice. The class given is in vivo, mouse. The note with it: Mus musculus, iv, mice, i.v.
Assay [2] relates to Male ICR mice. Kind of assay: Tail-flick antinociception (TF, % MPE) in mice. Type of assay: in vivo, mouse. Conditions: Mus musculus, iv, mice, i.v.
Another assay deals with CB1 receptor (Rattus norvegicus, UniProt P20272). Kind of assay: CB1 binding procedure: displacement of [3H]CP 55,940 from rat whole-brain P2 membranes. Conditions: for Ki: means ± SEM, [3H]CP 55,940, rat brain membranes, read-out: Ki (nM) CB1; for fold decrease in CB1 affinity: relative to the comparator analog. Set-up: whole brain was homogenized and centrifuged; from tissue; host or cells: rat whole brain, P2 membrane fraction.

[3] abbreviates: 95% confidence limits in parentheses, read-out: ED50 SA (suppression of spontaneous activity).
[4] abbreviates: 95% confidence limits in parentheses, read-out: ED50 TF (antinociceptive effect in tail flick assay).

Sequence of CB1 receptor (P20272 whole entry): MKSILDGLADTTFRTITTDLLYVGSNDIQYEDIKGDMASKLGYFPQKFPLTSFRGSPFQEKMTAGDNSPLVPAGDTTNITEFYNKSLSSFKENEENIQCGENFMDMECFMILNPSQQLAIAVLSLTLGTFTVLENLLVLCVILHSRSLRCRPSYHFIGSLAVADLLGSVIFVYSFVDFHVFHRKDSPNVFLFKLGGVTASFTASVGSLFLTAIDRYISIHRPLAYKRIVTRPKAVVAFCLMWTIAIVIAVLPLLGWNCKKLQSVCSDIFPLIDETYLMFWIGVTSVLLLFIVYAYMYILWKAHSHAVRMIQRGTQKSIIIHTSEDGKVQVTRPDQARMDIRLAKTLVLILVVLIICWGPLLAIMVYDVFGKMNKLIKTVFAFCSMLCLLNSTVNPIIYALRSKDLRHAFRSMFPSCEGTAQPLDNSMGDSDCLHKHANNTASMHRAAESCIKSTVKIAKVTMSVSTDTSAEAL

As a reminder, the ED50 is the dose that gives a 50% effect, or the effect in half of the subjects. Broadly, the Ki is the dissociation constant of the complex between target and ligand, obtained from inhibition or displacement. `CCCCCCC(C)(C)c1cc(O)c(C2CCCC(C)C2)c(O)c1` (mixture of isomers) [O-1657, 2-(3-Methylcyclohexyl)-5-(1′,1′-dimethylheptyl)-resorcinol]: the 50% effective dose (ED50) in the assay on Male ICR mice [1] (Table 6, read-out: S.A ED50) is 0.13 mg/kg; with Male ICR mice [1] (setting [3]), 0.3 µmol/kg; with Male ICR mice [2] (Table 6, read-out: T.F. ED50), 0.23 mg/kg; with Male ICR mice [2] (setting [4]) it was 0.6 µmol/kg. For the same molecule, the inhibitory constant (Ki) on CB1 receptor is 14 nM.

Turning to `CCCCCCC(C)(C)c1cc(O)c([C@H]2CCCC(C)C2)c(O)c1` (single isomer, unassigned) [O-1826], the ED50 with Male ICR mice [1] (Table 6, read-out: S.A ED50) is 0.915 mg/kg; in the assay on Male ICR mice [1] (setting [3]), 2.7 µmol/kg; with Male ICR mice [2] (Table 6, read-out: T.F. ED50), 0.821 mg/kg; with Male ICR mice [2] (setting [4]) it was 2.4 µmol/kg. For the same molecule, the Ki at CB1 receptor was 40 nM.

Regarding `CCCCCCC(C)(C)c1ccc(-c2cc(C)ccc2C(C)C)c(O)c1` [O-1376, 3-1′,1′-Dimethylheptyl-6-(2-isopropyl-5-methylphenyl)phenol], the ED50 in the assay with Male ICR mice [1] (Table 6, read-out: S.A ED50) came to 2.94 mg/kg; in the assay with Male ICR mice [1] (setting [3]) it was 8.5 µmol/kg; with Male ICR mice [2] (Table 6, read-out: T.F. ED50), 1.97 mg/kg; in the assay on Male ICR mice [2] (setting [4]), 5.7 µmol/kg. For the same molecule, at CB1 receptor, the inhibition constant (Ki) came to 33 ± 4 nM.

As for `CCCCCCC(C)(C)c1cc(O)c(C2CCCCC2)c(O)c1` [O-1422, Cyclohexyl-5-(1′,1′-dimethylheptyl)-resorcinol], the 50% effective dose (ED50) with Male ICR mice [1] (Table 6, read-out: S.A ED50) came out at 0.379 mg/kg; in the assay with Male ICR mice [1] (setting [3]), 0.1 µmol/kg; with Male ICR mice [2] (Table 6, read-out: T.F. ED50), 0.241 mg/kg; with Male ICR mice [2] (setting [4]), 0.6 µmol/kg. Further, the inhibition constant Ki on CB1 receptor was 11 ± 2 nM.

As to `CCCCCCC(C)(C)c1cc(O)c(C2=CCCCC2)c(O)c1` [O-1423], the ED50 is 3.92 mg/kg in the assay with Male ICR mice [1] (Table 6, read-out: S.A ED50); 12 µmol/kg in the assay on Male ICR mice [1] (setting [3]); 2.86 mg/kg in the assay with Male ICR mice [2] (Table 6, read-out: T.F. ED50); 9 µmol/kg in the assay on Male ICR mice [2] (setting [4]). Further, the Ki on CB1 receptor worked out at 97 ± 5 nM.

In the case of `CCCCCCC(C)(C)c1cc(O)c(C2CCSCC2)c(O)c1` [O-1425], the 50% effective dose (ED50) in the assay on Male ICR mice [1] (Table 6, read-out: S.A ED50) is 5.82 mg/kg; in the assay with Male ICR mice [1] (setting [3]) it was 17 µmol/kg; with Male ICR mice [2] (Table 6, read-out: T.F. ED50) it was 5.05 mg/kg; in the assay with Male ICR mice [2] (setting [4]), 15 µmol/kg. At CB1 receptor, the inhibition constant (Ki) was 153 ± 17 nM. Besides, on CB1 receptor, the “fold decrease in CB1 affinity” value is recorded as 14 fold.

In the case of `CCCCCCC(C)(C)c1cc(O)c(C2CCCCC2C)c(O)c1` (stereo not drawn) [O-1658, 2-(2-Methylcyclohexyl)-5-(1′,1′-dimethylheptyl)-resorcinol], the ED50 with Male ICR mice [1] (Table 6, read-out: S.A ED50) amounted to 0.06 mg/kg; with Male ICR mice [1] (setting [3]), 0.2 µmol/kg; with Male ICR mice [2] (Table 6, read-out: T.F. ED50) it was 0.09 mg/kg; with Male ICR mice [2] (setting [4]), 0.3 µmol/kg. Further, the inhibition constant Ki on CB1 receptor came to 16 ± 2 nM.

Take `CCCCCCC(C)(C)c1cc(O)c(C2CCC(C)CC2)c(O)c1` (stereo not drawn) [O-1659, 2-(4-Methylcyclohexyl)-5-(1′,1′-dimethylheptyl)-resorcinol]: the ED50 was 1.65 mg/kg in the assay on Male ICR mice [1] (Table 6, read-out: S.A ED50); 4.8 µmol/kg in the assay on Male ICR mice [1] (setting [3]); 1.35 mg/kg with Male ICR mice [2] (Table 6, read-out: T.F. ED50); 3.9 µmol/kg with Male ICR mice [2] (setting [4]). Moreover, the inhibition constant (Ki) at CB1 receptor stood at 45 ± 1 nM. The “fold decrease in CB1 affinity” value at CB1 receptor is “about 5 fold”.

Turning to `CCCCCCC(C)(C)c1cc(O)c(C2C3CC4CC(C3)CC2C4)c(O)c1` (stereo not drawn) [O-1660, 2-(2-Adamantyl)-5-(1′,1′-di-methylheptyl)-resorcinol], the ED50 with Male ICR mice [1] (Table 6, read-out: S.A ED50) was 1.27 mg/kg; with Male ICR mice [1] (setting [3]), 3.5 µmol/kg; in the assay with Male ICR mice [2] (Table 6, read-out: T.F. ED50) it was 0.911 mg/kg; in the assay on Male ICR mice [2] (setting [4]) it was 2.4 µmol/kg. Besides, the Ki at CB1 receptor was determined as 7 ± 1 nM.

As to `CCCCCCC(C)(C)c1cc(O)c(C2CCSC2)c(O)c1` (stereo not drawn) [O-1661, 2-(Tetrahydrothiophen-3-yl)-5-(1′,1′-dimethylheptyl)-re-sorcinol], the ED50 is 2.65 mg/kg in the assay with Male ICR mice [1] (Table 6, read-out: S.A ED50); 24 µmol/kg with Male ICR mice [1] (setting [3]); 4.39 mg/kg with Male ICR mice [2] (Table 6, read-out: T.F. ED50); 14 µmol/kg with Male ICR mice [2] (setting [4]). Besides, the inhibitory constant (Ki) on CB1 receptor was found to be 138 ± 4 nM.

With `CCCC(C)(C)c1cc(O)c(C2CCCC(C)C2)c(O)c1` (stereo not drawn) [O-1890, 2-(3-Methylcyclohexyl)-5-(1′,1′-dimethylbutyl)-resorcinol], the ED50 amounted to 20 mg/kg in the assay on Male ICR mice [1] (Table 6, read-out: S.A ED50); 69 µmol/kg in the assay on Male ICR mice [1] (setting [3]); 14 mg/kg in the assay on Male ICR mice [2] (Table 6, read-out: T.F. ED50); 48 µmol/kg in the assay with Male ICR mice [2] (setting [4]). In addition, the inhibitory constant (Ki) on CB1 receptor was 96 ± 4 nM.
